Reference: the NIST ThermoML archive (doi:10.1016/j.jct.2012.08.010)
Numbers after ± are expanded uncertainties.

How the values were obtained:
[1] = refractive index (Na D-line) (dimensionless); settings: 101.33 kPa, Liquid, Standard Abbe refractometry
[2] = 101 kPa, Liquid, Vibrating tube method
[3] = refractive index (Na D-line) (dimensionless); φn = volume fraction of the nth substance listed; settings: 101 kPa, Liquid, Standard Abbe refractometry, φ2 = 0
[4] = xn = mol fraction of the nth substance listed; settings: 101 kPa, Liquid, Vibrating tube method, x2 = 0

SMILES	refractive index ([1]; 288.15 K)	refractive index ([1]; 298.15 K)	refractive index ([1]; 308.15 K)	refractive index ([1]; 318.15 K)	refractive index ([1]; 328.15 K)	mass density ([2]; 288.15 K)	mass density ([2]; 298.15 K)	mass density ([2]; 308.15 K)	mass density ([2]; 318.15 K)	mass density ([2]; 328.15 K)	refractive index ([3]; 288.15 K)	refractive index ([3]; 298.15 K)	refractive index ([3]; 308.15 K)	refractive index ([3]; 318.15 K)	refractive index ([3]; 328.15 K)	mass density ([4]; 288.15 K)	mass density ([4]; 298.15 K)	mass density ([4]; 308.15 K)	mass density ([4]; 318.15 K)	mass density ([4]; 328.15 K)
Cc1ccccc1C [1,2-dimethylbenzene]	1.50775 ± 0.00031	1.50257 ± 0.00031	1.49724 ± 0.00031	1.49201 ± 0.00031	1.48661 ± 0.00031	884.07 ± 0.12 kg/m3	875.67 ± 0.13 kg/m3	867.3 ± 0.1 kg/m3	858.81 ± 0.13 kg/m3	850.24 ± 0.13 kg/m3	–	–	–	–	–	–	–	–	–	–
Cc1ccccc1C [1,2-dimethylbenzene] + C=C[Si]1(C)O[Si](C)(C=C)O[Si](C)(C=C)O[Si](C)(C=C)O1	–	–	–	–	–	–	–	–	–	–	1.50775 ± 0.00031	1.50257 ± 0.00031	1.49724 ± 0.00031	1.49201 ± 0.00031	1.48661 ± 0.00031	884.07 ± 0.12 kg/m3	875.67 ± 0.13 kg/m3	867.3 ± 0.1 kg/m3	858.81 ± 0.13 kg/m3	850.24 ± 0.13 kg/m3
Cc1cccc(C)c1 [1,3-dimethylbenzene]	1.49969 ± 0.00031	1.49444 ± 0.00031	1.48894 ± 0.00031	1.48355 ± 0.00031	1.4782 ± 0.0003	868.39 ± 0.13 kg/m3	859.83 ± 0.13 kg/m3	851.25 ± 0.13 kg/m3	842.58 ± 0.13 kg/m3	833.85 ± 0.14 kg/m3	–	–	–	–	–	–	–	–	–	–
Cc1cccc(C)c1 [1,3-dimethylbenzene] + C=C[Si]1(C)O[Si](C)(C=C)O[Si](C)(C=C)O[Si](C)(C=C)O1	–	–	–	–	–	–	–	–	–	–	1.49969 ± 0.00031	1.49444 ± 0.00031	1.48894 ± 0.00031	1.48355 ± 0.00031	1.4782 ± 0.0003	868.39 ± 0.13 kg/m3	859.83 ± 0.13 kg/m3	851.25 ± 0.13 kg/m3	842.58 ± 0.13 kg/m3	833.85 ± 0.14 kg/m3
Cc1ccc(C)cc1 [1,4-dimethylbenzene]	1.49836 ± 0.00031	1.49298 ± 0.00031	1.48743 ± 0.00031	1.48202 ± 0.00031	1.47654 ± 0.00031	865.3 ± 0.1 kg/m3	856.62 ± 0.13 kg/m3	847.97 ± 0.13 kg/m3	839.21 ± 0.13 kg/m3	830.39 ± 0.14 kg/m3	–	–	–	–	–	–	–	–	–	–
Cc1ccc(C)cc1 [1,4-dimethylbenzene] + C=C[Si]1(C)O[Si](C)(C=C)O[Si](C)(C=C)O[Si](C)(C=C)O1	–	–	–	–	–	–	–	–	–	–	1.49836 ± 0.00031	1.49298 ± 0.00031	1.48743 ± 0.00031	1.48202 ± 0.00031	1.47654 ± 0.00031	865.3 ± 0.1 kg/m3	856.62 ± 0.13 kg/m3	847.97 ± 0.13 kg/m3	839.21 ± 0.13 kg/m3	830.39 ± 0.14 kg/m3
C=C[Si]1(C)O[Si](C)(C=C)O[Si](C)(C=C)O[Si](C)(C=C)O1 (stereo not given) [2,4,6,8-tetramethyl-2,4,6,8-tetravinylcycloterasiloxane]	1.43674 ± 0.00033	1.43202 ± 0.00033	1.4273 ± 0.0003	1.42257 ± 0.00033	1.41785 ± 0.00033	992.74 ± 0.13 kg/m3	982.54 ± 0.13 kg/m3	972.34 ± 0.13 kg/m3	962.14 ± 0.13 kg/m3	951.94 ± 0.13 kg/m3	–	–	–	–	–	–	–	–	–	–
CCc1ccccc1 [ethylbenzene]	1.49834 ± 0.00031	1.49297 ± 0.00031	1.48747 ± 0.00031	1.48202 ± 0.00031	1.47649 ± 0.00031	871.31 ± 0.13 kg/m3	862.55 ± 0.13 kg/m3	853.75 ± 0.13 kg/m3	844.87 ± 0.13 kg/m3	835.93 ± 0.13 kg/m3	–	–	–	–	–	–	–	–	–	–
CCc1ccccc1 [ethylbenzene] + C=C[Si]1(C)O[Si](C)(C=C)O[Si](C)(C=C)O[Si](C)(C=C)O1	–	–	–	–	–	–	–	–	–	–	1.49834 ± 0.00031	1.49297 ± 0.00031	1.48747 ± 0.00031	1.48202 ± 0.00031	1.47649 ± 0.00031	871.31 ± 0.13 kg/m3	862.55 ± 0.13 kg/m3	853.75 ± 0.13 kg/m3	844.87 ± 0.13 kg/m3	835.93 ± 0.13 kg/m3
